A word on the IC50: it is the point on the concentration scale where inhibition reaches its midpoint. A higher IC50 goes with weaker potency in that assay.

Each structure is given as a SMILES string.

T1 sequence (P06870 25-262): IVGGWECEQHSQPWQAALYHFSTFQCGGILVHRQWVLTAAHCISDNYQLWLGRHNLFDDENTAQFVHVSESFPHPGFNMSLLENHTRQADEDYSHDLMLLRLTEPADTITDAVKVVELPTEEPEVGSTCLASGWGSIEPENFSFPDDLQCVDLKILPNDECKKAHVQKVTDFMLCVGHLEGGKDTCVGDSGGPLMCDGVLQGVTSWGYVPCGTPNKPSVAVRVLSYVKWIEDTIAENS

The experiment has as its target T1, Human KLK1 (Homo sapiens, UniProt P06870).
T1 construct: purchased Callbiochem (Calbiochem)
Description: Determination of the IC50 for KLK1 (fluorogenic substrate H-DVal-Leu-Arg-AFC). The experiment is classed as biochemical. Particulars: 37° C. The essentials: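 hKLK1 + H-DVal-Leu-Arg-AFC, 37° C, varied cpd conc. Initial rate by A410 change → residual activity → IC50.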
In turn, `CN(C/C=C/c1ccccc1)CC(=O)N[C@@H](Cc1ccc(F)c(F)c1)C(=O)NCc1ccc(N)nc1` [Example 162, (S)—N-(6-Amino-pyridin-3-ylmethyl)-3-(3,4-difluoro-phenyl)-2-{2-[methyl-((E)-3-phenyl-allyl)-amino]-acetylamino}-propionamide] returned an IC50 of 38.1 nM.

`CN(CC(=O)N[C@@H](Cc1ccc(F)c(F)c1)C(=O)NCc1ccc(N)nc1)Cc1ccc(Cl)cc1` [Example 163, (S)—N-(6-Amino-pyridin-3-ylmethyl)-2-{2-[(4-chloro-benzyl)-methyl-amino]-acetylamino}-3-(3,4-difluoro-phenyl)-propionamide] gave a 50% inhibitory concentration (IC50) of 56.5 nM.

As to `CN(CC(=O)N[C@@H](Cc1ccc(F)c(F)c1)C(=O)NCc1ccc(N)nc1)Cc1cccc(Cl)c1` [Example 164, (S)—N-(6-Amino-pyridin-3-ylmethyl)-2-{2-[(3-chloro-benzyl)-methyl-amino]-acetylamino}-3-(3,4-difluoro-phenyl)-propionamide], inhibition was half-maximal at 345 nM (IC50).

`CN(CC(=O)N[C@@H](Cc1ccc(F)c(F)c1)C(=O)NCc1ccc(N)nc1)Cc1ccccc1Cl` [Example 165, (S)—N-(6-Amino-pyridin-3-ylmethyl)-2-{2-[(2-chloro-benzyl)-methyl-amino]-acetylamino}-3-(3,4-difluoro-phenyl)-propionamide] yielded an IC50 of 83.5 nM.

As to `COc1ccc(CN(C)CC(=O)N[C@@H](Cc2ccc(F)c(F)c2)C(=O)NCc2ccc(N)nc2)cc1` [Example 166, (S)—N-(6-Amino-pyridin-3-ylmethyl)-3-(3,4-difluoro-phenyl)-2-{2-[(4-methoxy-benzyl)-methyl-amino]-acetylamino}-propionamide], the midpoint of inhibition, the IC50, lay at 726 nM.

In turn, `CCCCN(C)CC(=O)N[C@@H](Cc1ccc(F)c(F)c1)C(=O)NCc1ccc(N)nc1` [Example 167, (S)—N-(6-Amino-pyridin-3-ylmethyl)-2-[2-(butyl-methyl-amino)-acetylamino]-3-(3,4-difluoro-phenyl)-propionamide] yielded an IC50 of 258 nM.

In turn, `CC(C)CN(C)CC(=O)N[C@@H](Cc1ccc(F)c(F)c1)C(=O)NCc1ccc(N)nc1` [Example 168, (S)—N-(6-Amino-pyridin-3-ylmethyl)-3-(3,4-difluoro-phenyl)-2-[2-(isobutyl-methyl-amino)-acetylamino]-propionamide] returned an IC50 of 291 nM. The IC50 values of the last two compounds are within 1.5-fold of each other.

On to `CN(CC(=O)N[C@@H](Cc1ccc(F)c(F)c1)C(=O)NCc1ccc(N)nc1)CC1CCCCC1` [Example 169, (S)—N-(6-Amino-pyridin-3-ylmethyl)-2-[2-(cyclohexylmethyl-methyl-amino)-acetylamino]-3-(3,4-difluoro-phenyl)-propionamide], for which the IC50 was 334 nM.

`Nc1ccc(CNC(=O)[C@H](Cc2ccc(F)c(F)c2)NC(=O)CN2CCCCC2)cn1` [Example 170, (S)—N-(6-Amino-pyridin-3-ylmethyl)-3-(3,4-difluoro-phenyl)-2-(2-piperidin-1-yl-acetylamino)-propionamide] gave an IC50 of 16.6 nM.

`Nc1ccc(CNC(=O)[C@H](Cc2ccc(F)c(F)c2)NC(=O)CN2CCOCC2)cn1` [Example 171, (S)—N-(6-Amino-pyridin-3-ylmethyl)-3-(3,4-difluoro-phenyl)-2-(2-morpholin-4-yl-acetylamino)-propionamide] gave an IC50 of 1.3 nM. This IC50 lies about 13-fold lower than the previous one.

On to `Nc1ccc(CNC(=O)[C@H](Cc2ccc(F)c(F)c2)NC(=O)CN2CCc3ccccc3C2)cn1` [Example 172, (S)—N-(6-Amino-pyridin-3-ylmethyl)-3-(3,4-difluoro-phenyl)-2-(2-3,4-dihydro-1H-isoquinolin-2-yl-acetylamino)-propionamide], for which the IC50 came to 12.7 nM. This IC50 lies about 9.8-fold higher than the previous one.

In the case of `Nc1ccc(CNC(=O)[C@H](Cc2ccc(F)c(F)c2)NC(=O)CN2CCCc3ccccc32)cn1` [Example 173, (S)—N-(6-Amino-pyridin-3-ylmethyl)-3-(3,4-difluoro-phenyl)-2-(2-3,4-dihydro-2H-quinolin-1-yl-acetylamino)-propionamide], the IC50 was determined as 78.3 nM.

For the compound `CN(CC(=O)N[C@@H](Cc1ccc(F)c(F)c1)C(=O)NCc1ccc(N)nc1)c1ccccc1` [Example 174, (S)—N-(6-Amino-pyridin-3-ylmethyl)-3-(3,4-difluoro-phenyl)-2-[2-(methyl-phenyl-amino)-acetylamino]-propionamide], the IC50 amounted to 90 nM.

`CC(C)N(C)[C@H](C)C(=O)N[C@@H](Cc1ccc(F)c(F)c1)C(=O)NCc1ccc(N)nc1` [Example 175, (R)—N-[(S)-1-[(6-Amino-pyridin-3-ylmethyl)-carbamoyl]-2-(3,4-difluoro-phenyl)-ethyl]-2-(isopropyl-methyl-amino)-propionamide] displayed an IC50 of 2 nM. This IC50 is about 45-fold lower than that of the compound before.

Regarding `CC(C)CN(C)[C@@H](C)C(=O)N[C@@H](Cc1ccc(F)c(F)c1)C(=O)NCc1ccc(N)nc1` [Example 177, (S)—N-[(S)-1-[(6-Amino-pyridin-3-ylmethyl)-carbamoyl]-2-(3,4-difluoro-phenyl)-ethyl]-2-(isobutyl-methyl-amino)-propionamide], half-maximal inhibition (IC50) was put at 1.9 nM.

Turning to `CCC(C)[C@H](C(=O)N[C@@H](Cc1ccc(F)c(F)c1)C(=O)NCc1ccc(N)nc1)N(C)C` (stereo partly drawn) [Example 178, (R)-2-Dimethylamino-3-methyl-pentanoic acid [(S)-1-[(6-amino-pyridin-3-ylmethyl)-carbamoyl]-2-(3,4-difluoro-phenyl)-ethyl]-amide], the IC50 came out at 15.9 nM.

On to `CN(C)[C@@H](C(=O)N[C@@H](Cc1ccc(F)c(F)c1)C(=O)NCc1ccc(N)nc1)C(C)(C)C` [Example 179, (R)—N-[(S)-1-[(6-Amino-pyridin-3-ylmethyl)-carbamoyl]-2-(3,4-difluoro-phenyl)-ethyl]-2-dimethylamino-3,3-dimethyl-butyramide], for which half-maximal inhibition (IC50) was put at 3.01 nM.

In turn, `CC(C)N(C)[C@H](C)C(=O)N[C@@H](Cc1ccc(F)cc1)C(=O)NCc1ccc(N)nc1` [Example 180, (R)—N-[(S)-1-[(6-Amino-pyridin-3-ylmethyl)-carbamoyl]-2-(4-fluoro-phenyl)-ethyl]-2-(isopropyl-methyl-amino)-propionamide] registered an IC50 of 7.9 nM.

Regarding `CC(C)N(C)[C@@H](C)C(=O)N[C@@H](Cc1ccc(F)cc1)C(=O)NCc1ccc(N)nc1` [Example 181, (S)—N-[(S)-1-[(6-Amino-pyridin-3-ylmethyl)-carbamoyl]-2-(4-fluoro-phenyl)-ethyl]-2-(isopropyl-methyl-amino)-propionamide], the IC50 is 1.1 nM.

Take `CCC(C)[C@H](C(=O)N[C@@H](Cc1ccc(F)cc1)C(=O)NCc1ccc(N)nc1)N(C)C` (stereo partly drawn) [Example 182, (R)-2-Dimethylamino-3-methyl-pentanoic acid [(S)-1-[(6-amino-pyridin-3-ylmethyl)-carbamoyl]-2-(4-fluoro-phenyl)-ethyl]-amide]: inhibition was half-maximal at 21.2 nM (IC50).

`CN(C)[C@@H](C(=O)N[C@@H](Cc1ccc(F)cc1)C(=O)NCc1ccc(N)nc1)C(C)(C)C` [Example 183, (R)—N-[(S)-1-[(6-Amino-pyridin-3-ylmethyl)-carbamoyl]-2-(4-fluoro-phenyl)-ethyl]-2-dimethylamino-3,3-dimethyl-butyramide]: the IC50 is 5.1 nM.

Regarding `CC(C)N[C@H](Cc1ccccc1)C(=O)N[C@@H](Cc1ccc(F)c(F)c1)C(=O)NCc1ccc(N)nc1` [Example 184, (R)—N-[(S)-1-[(6-Amino-pyridin-3-ylmethyl)-carbamoyl]-2-(3,4-difluoro-phenyl)-ethyl]-2-isopropylamino-3-phenyl-propionamide], the IC50 stood at 44.4 nM.

Compound `CN(C)[C@H](Cc1ccccc1)C(=O)N[C@@H](Cc1ccc(F)c(F)c1)C(=O)NCc1ccc(N)nc1` [Example 185, (R)—N-[(S)-1-[(6-Amino-pyridin-3-ylmethyl)-carbamoyl]-2-(3,4-difluoro-phenyl)-ethyl]-2-dimethylamino-3-phenyl-propionamide] registered an IC50 of 14.5 nM.

For `Cc1nc(N)ccc1CNC(=O)[C@H](CC1CCCC2CCCCC21)NC(=O)[C@H](N)C(C)C` (stereo partly drawn) [Example 186, (R)-2-Amino-N-[(S)-1-[(6-amino-2-methyl-pyridin-3-ylmethyl)-carbamoyl]-2-(decahydro-naphthalen-1-yl)-ethyl]-3-methyl-butyramide], the IC50 came out at 0.81 nM.

Regarding `CCC(C)[C@@H](N)C(=O)N[C@@H](CC1CCCC2CCCCC21)C(=O)NCc1ccc(N)nc1C` (stereo partly drawn) [Example 187, (R)-2-Amino-3-methyl-pentanoic acid [(S)-1-[(6-amino-2-methyl-pyridin-3-ylmethyl)-carbamoyl]-2-(decahydro-naphthalen-1-yl)-ethyl]-amide], the IC50 came out at 0.71 nM.

The compound `CCC(C)[C@@H](NC)C(=O)N[C@H](Cc1ccc(Cl)c(Cl)c1)C(=O)NCc1ccc(N)nc1C` (stereo partly drawn) [Example 188, (2R)-3-Methyl-2-methylamino-pentanoic acid [(R)-1-[(6-amino-2-methyl-pyridin-3-ylmethyl)-carbamoyl]-2-(3,4-dichloro-phenyl)-ethyl]-amide] registered an IC50 of 1.2 nM.

The compound `Cc1nc(N)ccc1CNC(=O)[C@@H](Cc1ccc(Cl)c(Cl)c1)NC(=O)[C@H]1CCCN1` [Example 189, (R)-Pyrrolidine-2-carboxylic acid [(R)-1-[(6-amino-2-methyl-pyridin-3-ylmethyl)-carbamoyl]-2-(3,4-dichloro-phenyl)-ethyl]-amide] registered an IC50 of 4.2 nM. Compared with the last compound, the IC50 is about 3.5-fold higher.

Turning to `Cc1nc(N)ccc1CNC(=O)[C@@H](Cc1ccc(Cl)c(Cl)c1)NC(=O)[C@H]1CCCN1C` [Example 190, (R)-1-Methyl-pyrrolidine-2-carboxylic acid [(R)-1-[(6-amino-2-methyl-pyridin-3-ylmethyl)-carbamoyl]-2-(3,4-dichloro-phenyl)-ethyl]-amide], half-maximal inhibition (IC50) was put at 1.8 nM.

The compound `Cc1nc(N)ccc1CNC(=O)[C@@H](Cc1ccc(Cl)c(Cl)c1)NC(=O)[C@H]1CSCN1` [Example 191, (S)-Thiazolidine-4-carboxylic acid [(R)-1-[(6-amino-2-methyl-pyridin-3-ylmethyl)-carbamoyl]-2-(3,4-dichloro-phenyl)-ethyl]-amide] came in with an IC50 of 33.3 nM.

Values taken from patent US20100076015A1, “Aminopyridine Derivatives” (VANTIA LIMITED, priority 2008, published 2010).
